According to patent publication US20150231109A1, “COMBINATIONS (CATECHINS AND METHOTREXATE) FOR USE IN THE TREATMENT OF MELANOMAS” (UNIVERSIDAD DE MURCIA, priority 2012, published 2015):

Key:
MCF7 = experiment: HPLC/MS/MS intracellular levels of MTX in MCF7; format: cell-based; settings: MCF7, same MTX treatment (24 h, 1 μM)
[1] = tested on: melanoma cells (SK-MEL-28); experiment: dNTP pool extraction and analysis; format: cell-based, human
Method: FIGS. 2A-N. MTX and TMECG combination therapy induces apoptosis via dTTP depletion and DNA-damage. A, Intracellular accumulation of TMECG-QM in SK-MEL-28 treated with TMECG or MTX/TMECG for 24 h. B, Proliferation assays performed of control or MTX/TMECG-treated ([…]) SK-MEL-28 cells. C, Quantification of effects of MTX/TMECG treatment on SK-MEL-28 cells (*P<0.05 with respect to TMECG-treated cells). For time course assay MTX (1 μM) and TMECG (10 μM) were used. D, dNTP quantification in melanoma cells subjected to indicated treatments (*P<0.05). E, SK-MEL-28 cells treated with MTX/TMECG for the indicated times were examined by immunofluorescence for γH2AX foci (red) and DAPI (blue) (left panels), or by WB (right panels). β-actin served as a protein loading control. F, apoptosis determination at different MTX/TMECG combinations in SK-MEL-28 cells after 4 days of treatment. Data were obtained in triplicate in two independent experiments. Differences in apoptosis in MTX/TMECG treated cells were significant with respect to individual treatments for each drug concentration (p<0.05). […] K, quantification of γH2AX foci in SK-MEL-28 cells treated with MTX (1 μM) and/or TMECG (10 μM), or X-rays. […] N, Cell cycle profile determined by flow cytometry of SK-MEL-28 cells treated with a sublethal dose of MTX/TMECG. […]

Caco-2 = experiment: HPLC/MS/MS intracellular levels of MTX in Caco-2; format: cell-based; settings: Caco-2, same MTX treatment (24 h, 1 μM)

Q: `CN(Cc1cnc2nc(N)nc(N)c2n1)c1ccc(C(=O)N[C@@H](CCC(=O)O)C(=O)O)cc1` [MTX, methotrexate] was tested. Which “intracellular levels of MTX” value (MCF7) did it give?
A: Its value is 1.3 ± 0.4 pmol/106 cells.

Q: And the dTTP levels [1]?
A: Its dTTP levels is “increased dTTP levels”.

Q: And the “intracellular levels of MTX” value (Caco-2)?
A: Its value is 0.8 ± 0.3 pmol/106 cells.
